Assay [1] has as its target T1, 11-beta-hydroxysteroid dehydrogenase type 2 (Rattus norvegicus) (UniProt P50233).
T1 sequence (whole entry): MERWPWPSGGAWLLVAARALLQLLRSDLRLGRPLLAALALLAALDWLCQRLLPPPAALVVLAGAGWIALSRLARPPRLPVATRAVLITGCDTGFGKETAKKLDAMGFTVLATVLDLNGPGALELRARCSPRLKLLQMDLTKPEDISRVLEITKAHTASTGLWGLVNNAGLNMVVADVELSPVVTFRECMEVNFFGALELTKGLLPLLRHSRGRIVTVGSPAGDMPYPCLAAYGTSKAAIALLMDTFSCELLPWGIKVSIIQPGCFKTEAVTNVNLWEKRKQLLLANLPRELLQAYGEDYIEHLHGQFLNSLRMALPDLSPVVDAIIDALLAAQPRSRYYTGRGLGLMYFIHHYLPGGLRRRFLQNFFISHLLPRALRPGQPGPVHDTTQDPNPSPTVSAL
As to the kind of experiment: (§1) Percent inhibition against 11-beta-hydroxysteroid dehydrogenase 2 of wistar rat kidney at 10 uM was determined using [3H]cortisol.

The target in assay [2] is 11-beta-hydroxysteroid dehydrogenase 1 (Rattus norvegicus) (UniProt P16232). As to the kind of experiment: Percent inhibition against 11-beta-hydroxysteroid dehydrogenase 1 of wistar rat liver cytosol at 10 uM was determined using [3H]cortisone.
Assay [3] addresses T2, 11-beta-hydroxysteroid dehydrogenase type 2 (Rattus norvegicus, UniProt P50233).
T2 sequence (P50233 whole entry): T1 sequence (whole entry)
The description is as §1.

The results in this text go back to ChEMBL document CHEMBL1146657, “A novel 18 beta-glycyrrhetinic acid analogue as a potent and selective inhibitor of 11 beta-hydroxysteroid dehydrogenase 2” (Bioorg Med Chem Lett, 2004).

11-beta-hydroxysteroid dehydrogenase 1 (Rattus norvegicus), sequence (P16232 whole entry, looked up): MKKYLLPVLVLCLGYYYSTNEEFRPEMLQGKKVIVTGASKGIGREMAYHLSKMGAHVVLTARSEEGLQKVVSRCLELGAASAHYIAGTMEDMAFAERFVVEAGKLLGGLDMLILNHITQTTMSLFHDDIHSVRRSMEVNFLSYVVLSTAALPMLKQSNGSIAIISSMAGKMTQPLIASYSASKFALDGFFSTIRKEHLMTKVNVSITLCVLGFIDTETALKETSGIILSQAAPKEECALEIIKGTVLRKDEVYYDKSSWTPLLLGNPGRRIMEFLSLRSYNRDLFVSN

Regarding `CC1(C)C2CC[C@]3(C)C(C(=O)C=C4[C@@H]5C[C@@](C)(C(=O)NC6CC6)CC[C@]5(C)CC[C@]43C)[C@@]2(C)CC[C@@H]1O` (some centres not stated), the inhibition stood at 103% in assay [1] and 90% in assay [2].
For `CC1(C)[C@@H](O)CC[C@]2(C)[C@H]3C(=O)C=C4[C@@H]5C[C@@](C)(C(=O)O)CC[C@]5(C)CC[C@@]4(C)[C@]3(C)CC[C@@H]12`, the results for the inhibition in assay [1] and in assay [2] were 101% and 85%, respectively.
`CC1(C)C2CC[C@]3(C)C(C(=O)C=C4[C@@H]5C[C@@](C)(C(=O)NCCN6CCOCC6)CC[C@]5(C)CC[C@]43C)[C@@]2(C)CC[C@@H]1O` (some centres not stated): the inhibition turned out to be 66% in assay [1] and 19% in assay [2].
As to `CCOC(=O)[C@H](C)NC(=O)[C@@]1(C)CC[C@]2(C)CC[C@]3(C)C(=CC(=O)C4[C@@]5(C)CC[C@H](O)C(C)(C)C5CC[C@]43C)[C@@H]2C1` (some centres not stated), the inhibition in assay [1] came out at 35%; in assay [2], 25%.
Take `CC1(C)C2CC[C@]3(C)C(C(=O)C=C4[C@@H]5C[C@@](C)(C(=O)NC6CCOC6=O)CC[C@]5(C)CC[C@]43C)[C@@]2(C)CC[C@@H]1O` (some centres not stated): the values for the inhibition in assay [1] and in assay [2] were 25% and 71%, respectively.
For `CC1(C)C2CC[C@]3(C)C(C(=O)C=C4[C@@H]5C[C@@](C)(C(=O)NCCCCCO)CC[C@]5(C)CC[C@]43C)[C@@]2(C)CC[C@@H]1O` (some centres not stated), the inhibition in assay [1] is 98%; in assay [2] it was 88%.
Take `CC1(C)C2CC[C@]3(C)C(C(=O)C=C4[C@@H]5C[C@@](C)(C(=O)NCCO)CC[C@]5(C)CC[C@]43C)[C@@]2(C)CC[C@@H]1O` (some centres not stated): the inhibition was 92% in assay [1] and 36% in assay [2]. The molecule also came in with a 50% inhibitory concentration (IC50) in assay [3] of 4 pM.
On to `CC1(C)C2CC[C@]3(C)C(C(=O)C=C4[C@@H]5C[C@@](C)(C(=O)NN6CCOCC6)CC[C@]5(C)CC[C@]43C)[C@@]2(C)CC[C@@H]1O` (some centres not stated), for which the inhibition in assay [1] was determined as 20%; in assay [2] it was 34%.

The term inhibition denotes the relative decrease from the control value, in per cent. The term IC50 denotes the point on the concentration scale where inhibition reaches its midpoint. Read a high IC50 as weaker potency in that assay.
